From patent US20140357688A1, “METHOD FOR INHIBITING EZH2 EXPRESSION IN BREAST CANCER CELLS” (Yung Shin Pharm. Ind. Co., Ltd., priority 2013, published 2014)

Key:
Format in all cases: cell-based, human
Ras = Ras activation (Raf-RBD pull-down); details: 3 μM YC-1
Protocol: (A) Cells were pretreated with DMSO (as control), Bay-43-9006 (Bay, 10 μM), farnyesyl thiosalicylic acid (FTS, 10 μM), Src inhibitor I (SrcI, 10 μM), and genistein (Gen, 10 μM), then followed by YC-1 (3 μM) incubation for 6 h. Cells were harvested and lysed for western blot analysis (left, right) and cell viability (middle). The levels of protein expression were quantitated and shown under blots. (B) MDA-MB-468 cells were transfected with shRNA of Raf-1 or Src. After stimulation of 3 μM YC-1 for 4 h, cell protein was subjected to western blot analysis. (C) Cells were incubated with 3 μM YC-1 for indicated time and then lysed for detection of Src, Raf-1, and MEK activation by using specific anti-phosphorylated antibodies. (D) Cells were treated with 3 μM YC-1 for indicated time. Cells were lysed and detected Ras activation by using Raf-RBD conjugated agarose to pull-down Ras-GTP. The total Ras in cell lysate was also detected. […] Cells were lysed and protein expression was determined by western blot analysis. (F) Cells were induced by 3 μM YC-1 in the presence of indicated inhibitors. Cells were lysed and subjected to EZH2 ubiquitination assay.
Ras-GTP has a high affinity with Ras binding domain of Raf-1 (Raf-RBD). Accordingly, GST fusion protein containing Raf-RBD was applied to detect Ras activation. […]

EZH2 = EZH2 ubiquitination assay; details: 3 μM YC-1
Protocol: (A) Cells were pretreated with cyclohexamide (30 μM) for 1 h and followed by induction with vehicle (DMSO) or YC-1 (3 μM) for indicated time. Cells were harvested for detection of protein expression. (B)(C) Cells were incubated with 3 μM YC-1 for 6 h in the presence of vehicle, 3 μM MG-132 or 30 μM NH4Cl. Cells were harvested for detection of protein expression (B) or cell viability assay (C). The levels of protein expression were quantitated and shown under blots. (D) After treatment of 3 μM YC-1 for indicated time, cells were harvested and lysed for immunoprecipitation and western blot analysis described in Materials and Methods.
Cells were lysed with MLB buffer (25 mM HEPES, pH 7.5, 150 mM NaCl, 1% Igepal CA-630, 10 mM MgCl2, 1 mM EDTA, 2% glycerol, 1 mM Na3VO4, 1 mM NaF, 1 mM PMSF, 10 μg/ml of leupeptin, aprotinin, and pepstatin A). After sonication, cell lysates were centrifugated at 12,000×g for 10 min at 4° C. Supernatants were incubated with anti-EZH2 antibody (BD Biosciences) and protein A Sepharose beads (GE Health Care) overnight at 4° C. After washing with MLB buffer, precipitated proteins were boiled in 1× Laemmli sample buffer and then separated with SDS-PAGE. The ubiquitination levels of EZH2 were recognized by using anti-Ubiquitn monoclonal antibody.

[1] = system: caspase-8, -9, and -3 and PARP; assay: Western blot of caspases and PARP cleavage
Protocol: (A) Cells were treated with indicated concentration of YC-1 for 6, 24, and 48 h. Cell viability was determined by MTT method. (B) MDA-MB-468 cells were treated with 3 μM YC-1 for 0, 6, and 12 h, and then stained with fluorescence diacetate (FDA) and propidium iodide (PI). Cell morphology was assessed by fluorescence microscopy with magnification ×20 (upper 3 rows) or ×40 (lowest row). (C) MDA-MB-468 cells were treated with 3 μM YC-1 for 24 h, cells were lysed and subjected to western blot analysis described in Materials and Methods. β-actin is a loading control. Blots were representative of results from three independent experiments. (D) Cells were treated with vehicle (DMSO, as control) or 3 μM YC-1 for 6 h. The cell cycles were analyzed by flow cytometry. […]
(A)(B) Cells were treated with indicated concentration of YC-1 for 24 h (A) or 3 μM of YC-1 for indicated time (B). […] The levels of protein expression were quantitated and shown under blots. […] (D)(E) After 4 days of EZH2 knockdown, cells were incubated with 3 μM YC-1 for 4 h and detected cell viability (D) and protein contents (E). […]
Cells were lysed in PBS containing proteinase inhibitor and phosphatase inhibitors and sonication. Protein concentration was measured using the Bio-Rad protein assay kit (Bio-Rad Laboratories, Hercules, Calif., USA). […] The band intensities were analyzed and quantified by the Multi Gauge software (Fuji Photo Film).

EZH2 mRNA = assay: Quantitative real-time RT-PCR of EZH2 mRNA; details: 3 μM YC-1, 3 or 6 h; less inhibition than protein levels
Protocol: Cells were treated with 3 μM YC-1 for 3 or 6 h. Cells were collected for the detection of EZH2 mRNA expression with quantitative real-time RT-PCR described in Materials and Methods.
Total RNA was isolated from MDA-MB-468 cells treated with YC-1 and extracted using TRIzol® Reagent (Invitrogen). cDNA strain was reverse transcribed by oligo dT(15) using M-MLV reverse transcriptase (Invitrogen) according to the manufacturer's instructions. Quantitative real-time RT-PCR analysis was performed by a LightCycler® 480 II RTPCR system (Roche Applied Sciences, Manheim, Germany) using Fast Start DNA Master Plus SYBR Green I kit (Roche Applied Sciences). PCR primers were as follows: human EZH2 (NM_004456.4) 5′-[…]-3′ (Forward), 5′-[…]-3′ (Reverse); human GAPDH (NM_002046.3) 5′-[…]-3′ (Forward); 5′-[…]-3′ (Reverse). The expression level of EZH2 mRNA was normalized against the level of GAPDH mRNA in the same sample.

SMILES: OCc1ccc(-c2nn(Cc3ccccc3)c3ccccc23)o1 [YC-1, 3-(5′-hydroxymethyl-2′-furyl)-1-benzyl indazole]
- Ras activation (Ras): could not induce Ras activation
- ubiquitination of EZH2 (EZH2): time-dependently promoted the ubiquitination of EZH2
- earliest effects of caspase-3 activation detected ([1]; 3 μM YC-1): 4 h
- cleavage of caspases and PARP ([1]; 3 μM YC-1, 24 h): clearly caused the cleavage of caspases and PARP
- mRNA expression of EZH2 (EZH2 mRNA): inhibitory effect
